Series [1] deals with EG.7 Ova expressing tumor cells. The series can be described thus: prophylactic anti-tumor efficacy, EG7-OVA tumor model, q7d×3. Type of series: in vivo, C57BI/6 mice. The protocol:
Efficacy studies. E.G7-OVA or EL-4 thymoma cell lines were used throughout the study. These cells were cultured in vitro according to established methods. […] Tumor measurements were made by repeated perpendicular measurements of tumor dimensions and using the formula: […]
Anti-tumor efficacy induced by subcutaneous immunization was assessed in C57BI/6 (5 animals per group) in a prophylactic immunization model. Mice were immunized subcutaneously with 3 injections on a q7d×3 dosing regimen on Days 0, 7 and 14 at a dose of 100 μg oligonucleotide and 20 μg of OVA antigen dose. […] Mice were monitored 3 times weekly to assess tumor growth and weight gain. Control mice were injected with one of PBS or HBS and […] of OVA antigen on the same schedule described above. Oligonucleotides were encapsulated in a lipid particle having a lipid composition of one of POPC: CHOL: DODAP:PEGCer14 or DSPC: CHOL: DODAP:PEGCer14 each in a ratio of 25:45:20:10. All comparisons of methylated and unmethylated oligonucleotides were done using like lipid particles. Results from these efficacy experiments are detailed in FIGS. 12-15, 18-21, and 25-28. Day 0 on each of the Figures is the day each animal was challenged with the tumor.

The next series has as its system dendritic cells. Kind of series: in vivo dendritic cell activation (IFN-γ secreting cells). Particulars: encapsulated in POPC:CHOL:DODMA:PEGDMG 20:45:25:10. The protocol: PBS was used as a control.
FIG. 3 clearly illustrates the ability of encapsulated ODN1m to activate dendritic cells. […] Dendritic cell activation was measured by the percentage of IFN-γ secreting cells. These cells were labeled with an antibody to indicate the cell type and only those having the dendritic cell marker were included in this measurement.

For the next series, the system named is B16 cell target. Kind of series: CTL response to B16 cell target after multiple epitope immunization. It is filed as in vivo, C57BL/6 mice. Conditions: encapsulated PS-ODN 1m (POPC:Chol:DODMA:PEG-DMG) with TRP2 and Gp100 peptides or B16 lysate; 3 injections. The procedure: Targeting multiple antigens and MHC alleles might be achieved by using multiple recombinant antigen mixtures of synthetic peptide epitopes. To improve the immune response against these multi-epitope antigens several adjuvants are under assay. This experiment employs encapsulated PS-ODN 1 m using POPC:Chol:DODMA:PEG-DMG (25:45:20:10 molar ratio) in combination with two murine melanoma antigens TRP2 (H2Kb, […]) and Gp100 (H2Db, […]). C57BL/6 mice were injected 3 times with either each antigen, or both, in the presence of encapsulated PS-ODN 1 m. As positive control we used dendritic cells known to be potent in inducing CTL responses. B16 lysate containing multiple epitopes was also assayed either with ODN1m or DC for the ability to induce multi-epitope immunity. Immune response was assessed by the ability of CD8+ T cells to mediate cytotoxicity against tumor cells in an antigen-specific manner.

Entries after “also recorded” stand apart in the source; their conditions may differ. [5mC] = 5-methylcytosine

One substance from US20040013649A1, “Cancer vaccines and methods of using the same” (Inex Pharmaceuticals Corporation, priority 2002, published 2004) can be followed below.

Take “ODN1m: 5′-TAAZGTTGAGGGGCAT-3, SEQ ID NO: 4, Z = methylated cytosine (DNA TAACGTTGAGGGGCAT; DNA, [5mC] at 4, backbone not given here; tested with both phosphodiester and phosphorothioate backbones)”: the “reduction in tumor growth” value is “approached the rate of the control animal” in series [1] (free ODN, 100 μg ODN + 20 μg OVA s.c. q7d×3, tumor challenge Day 21); “therapeutic efficacy was greatest with the methylated version 32 days after transplantation” in series [1] (lipid encapsulated ODN, PO backbone, 100 μg ODN + 20 μg OVA s.c. q7d×3); “equal in therapeutic efficacy in comparison to the unmethylated ODN1; also recorded: improved efficacy” in series [1] (lipid encapsulated ODN, PS backbone, 100 μg ODN + 20 μg OVA s.c. q7d×3). Also, the “percentage of tumor free animals” value in series [1] (lipid encapsulated ODN, FIG. 19A) is recorded as “greater percentage of tumor free animals”. The “number of animals remaining in the study” value in series [1] (lipid encapsulated ODN, FIG. 19B) is “essentially identical throughout the study”. In addition, in series [1] (lipid encapsulated ODN, versus unmethylated counterpart), the “survival rate of mice” value was “increase in the survival rate”. In addition, the “dendritic cell activation (percentage of IFN-γ secreting cells)” value in the series on dendritic cells is given as “more active than its unmethylated counterpart; also recorded: more active than the unmethylated counterpart ODN1”. The CTL response result in the series on B16 cell target was “a CTL response was raised against both antigens”.
